The NIST ThermoML archive (doi:10.1016/j.fluid.2013.06.013)

Columns and labels:
[1] = refractive index (Na D-line) (dimensionless); settings: 298.15 K; 101.33 kPa; Liquid; Standard Abbe refractometry
[2] = 298.15 K; 101.33 kPa; Liquid; Vibrating tube method
[3] = refractive index (Na D-line) (dimensionless); xn = mol fraction of the nth substance listed; settings: 298.15 K, 101 kPa, Liquid, Standard Abbe refractometry
[4] = xn = mol fraction of the nth substance listed; settings: 298.15 K, 101 kPa, Liquid, Vibrating tube method

CCCCCCCC[n+]1ccn(C)c1.F[B-](F)(F)F [1-methyl-3-octylimidazolium tetrafluoroborate]
Settings	mass density [kg/m3]	refractive index
[1]	–	1.43306
[2]	1101.99	–

O [water]
Settings	refractive index
[1]	1.33249

CC(CC(C)(C)C)CP(=O)([O-])CC(C)CC(C)(C)C.CCCCCCCCCCCCCC[P+](CCCCCC)(CCCCCC)CCCCCC
Settings	mass density [kg/m3]	refractive index
[1]	–	1.47125
[2]	886.43	–

CCCCCCn1cc[n+](C)c1.F[B-](F)(F)F [1-hexyl-3-methylimidazolium tetrafluoroborate]
Settings	mass density [kg/m3]	refractive index
[1]	–	1.42844
[2]	1144.46	–

CC(=O)CC(C)=O [2,4-pentanedione] + CC(CC(C)(C)C)CP(=O)([O-])CC(C)CC(C)(C)C.CCCCCCCCCCCCCC[P+](CCCCCC)(CCCCCC)CCCCCC
Settings	mass density, [4] [kg/m3]	refractive index, [3]
x1 = 0.0517	888.32	1.4714
x1 = 0.0958	889.43	1.4721
x1 = 0.2082	892.48	1.4731
x1 = 0.2986	895.05	1.4742
x1 = 0.3991	898	1.4751
x1 = 0.499	901.47	1.475
x1 = 0.6013	905.75	1.4753
x1 = 0.7004	911.47	1.474
x1 = 0.7998	919.31	1.4716
x1 = 0.9	933.94	1.4659
x1 = 0.95	946.89	1.4602

CCCCCCCCN(CCCCCCCC)CCCCCCCC [trioctylamine]
Settings	mass density [kg/m3]	refractive index
[1]	–	1.44758
[2]	807.46	–

CCCCn1cc[n+](C)c1.F[P-](F)(F)(F)(F)F [1-butyl-3-methylimidazolium hexafluorophosphate]
Settings	mass density [kg/m3]	refractive index
[1]	–	1.40926
[2]	1366.95	–

CCCCCCCCCCCCCC[P+](CCCCCC)(CCCCCC)CCCCCC.[Cl-] [trihexyl(tetradecyl)phosphonium chloride]
Settings	mass density [kg/m3]	refractive index
[1]	–	1.48175
[2]	891.82	–

CC(=O)CC(C)=O [2,4-pentanedione]
Settings	mass density [kg/m3]	refractive index
[1]	–	1.4509
[2]	971.07	–

CCCCCCCCCCCCCC[P+](CCCCCC)(CCCCCC)CCCCCC.[Cl-] [trihexyl(tetradecyl)phosphonium chloride] + CC(=O)CC(C)=O
Settings	mass density, [4] [kg/m3]	refractive index, [3]
x2 = 0.0586	892.92	1.4811
x2 = 0.0977	893.66	1.481
x2 = 0.1957	895.67	1.481
x2 = 0.2949	898.11	1.4805
x2 = 0.3989	901.25	1.4799
x2 = 0.4985	905.14	1.478
x2 = 0.6092	910.91	1.4759
x2 = 0.7096	918.02	1.4741
x2 = 0.8008	926.85	1.4705
x2 = 0.9036	942.76	1.4633
x2 = 0.9508	953.8	1.458

CCn1cc[n+](C)c1.O=S(=O)([N-]S(=O)(=O)C(F)(F)F)C(F)(F)F
Settings	mass density [kg/m3]	refractive index
[1]	–	1.42293
[2]	1518.86	–

CCCCCCCCCCCCCC[P+](CCCCCC)(CCCCCC)CCCCCC.N#C[N-]C#N [tetradecyl(trihexyl)phosphonium dicyanamide] + CC(=O)CC(C)=O
Settings	mass density, [4] [kg/m3]	refractive index, [3]
x2 = 0.0599	899.94	1.481
x2 = 0.113	900.73	1.4808
x2 = 0.2	902.2	1.4801
x2 = 0.3143	904.54	1.4795
x2 = 0.4094	906.97	1.4785
x2 = 0.5016	909.92	1.4773
x2 = 0.5967	913.83	1.4757
x2 = 0.7002	919.76	1.4732
x2 = 0.8004	928.35	1.47
x2 = 0.9	942.61	1.463
x2 = 0.9496	953.89	1.4578

CCCC[n+]1ccn(C)c1.O=S(=O)([N-]S(=O)(=O)C(F)(F)F)C(F)(F)F
Settings	mass density [kg/m3]	refractive index
[1]	–	1.42689
[2]	1436.16	–

CCCCCCCCCCCCCC[P+](CCCCCC)(CCCCCC)CCCCCC.N#C[N-]C#N [tetradecyl(trihexyl)phosphonium dicyanamide]
Settings	mass density [kg/m3]	refractive index
[1]	–	1.48154
[2]	899.14	–
